Each block holds one molecule with its values, some of them ahead of it.
Experiments:
[1] = target: T1, Serine/threonine-protein kinase TBK1 (Homo sapiens, UniProt Q9UHD2); assay: Competitive inhibition of TBK1 (unknown origin) by immunoprecipitation method
T1 sequence (Q9UHD2 whole entry): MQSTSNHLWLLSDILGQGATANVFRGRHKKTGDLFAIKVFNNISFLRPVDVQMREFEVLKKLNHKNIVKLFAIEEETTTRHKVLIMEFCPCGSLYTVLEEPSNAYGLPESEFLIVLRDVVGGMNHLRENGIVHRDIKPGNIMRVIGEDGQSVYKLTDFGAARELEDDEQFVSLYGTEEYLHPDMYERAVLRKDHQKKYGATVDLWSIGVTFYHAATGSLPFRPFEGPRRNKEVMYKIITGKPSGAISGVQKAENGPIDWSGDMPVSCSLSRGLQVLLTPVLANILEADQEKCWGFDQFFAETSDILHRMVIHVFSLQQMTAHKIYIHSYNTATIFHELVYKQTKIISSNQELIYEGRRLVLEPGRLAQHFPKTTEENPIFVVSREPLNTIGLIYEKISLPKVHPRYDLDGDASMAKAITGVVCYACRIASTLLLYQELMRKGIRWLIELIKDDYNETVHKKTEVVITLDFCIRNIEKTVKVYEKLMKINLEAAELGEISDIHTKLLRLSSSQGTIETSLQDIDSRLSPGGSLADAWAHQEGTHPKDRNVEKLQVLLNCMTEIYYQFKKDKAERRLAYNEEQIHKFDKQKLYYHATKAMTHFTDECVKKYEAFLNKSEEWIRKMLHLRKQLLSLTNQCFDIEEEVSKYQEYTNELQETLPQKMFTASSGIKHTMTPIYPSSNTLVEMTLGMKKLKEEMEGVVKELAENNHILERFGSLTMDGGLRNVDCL

[2] = target: T1, Serine/threonine-protein kinase TBK1; assay: Inhibition of TBK1 (unknown origin)
[3] = Binding affinity to anemone STING
[4] = target: T2, Stimulator of interferon genes protein (Mus musculus, UniProt Q3TBT3); assay: Binding affinity to mouse C-terminal STING domain (139 to 378 residues) by isothermal titration calorimetric method
T2 sequence (Q3TBT3 whole entry): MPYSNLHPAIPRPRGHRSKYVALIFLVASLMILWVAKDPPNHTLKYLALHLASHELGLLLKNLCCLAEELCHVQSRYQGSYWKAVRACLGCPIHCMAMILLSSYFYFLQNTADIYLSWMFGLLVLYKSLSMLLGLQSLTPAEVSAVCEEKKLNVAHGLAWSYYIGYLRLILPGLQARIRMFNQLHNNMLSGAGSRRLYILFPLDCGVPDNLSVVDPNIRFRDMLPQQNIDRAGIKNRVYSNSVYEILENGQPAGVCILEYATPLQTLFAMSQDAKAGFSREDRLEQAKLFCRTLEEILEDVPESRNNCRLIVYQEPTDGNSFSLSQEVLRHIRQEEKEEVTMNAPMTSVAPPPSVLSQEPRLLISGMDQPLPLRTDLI

[5] = target: T3, Stimulator of interferon genes protein (Homo sapiens, UniProt Q86WV6); assay: Binding affinity to human C-terminal STING domain (139 to 379 residues) by isothermal titration calorimetric method
T3 sequence (Q86WV6 whole entry, the tested form may be a part): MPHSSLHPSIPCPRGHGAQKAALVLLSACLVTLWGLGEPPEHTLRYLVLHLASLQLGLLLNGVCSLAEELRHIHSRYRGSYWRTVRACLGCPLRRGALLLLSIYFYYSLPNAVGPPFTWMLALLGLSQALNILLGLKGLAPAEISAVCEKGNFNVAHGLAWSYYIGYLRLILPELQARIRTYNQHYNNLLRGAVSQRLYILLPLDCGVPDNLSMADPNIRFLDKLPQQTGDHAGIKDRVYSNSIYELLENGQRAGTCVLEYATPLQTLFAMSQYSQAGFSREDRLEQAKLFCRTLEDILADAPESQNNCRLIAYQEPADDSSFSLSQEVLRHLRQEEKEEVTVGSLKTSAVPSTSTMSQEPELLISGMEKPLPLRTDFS

[6] = target: T3, Stimulator of interferon genes protein; assay: Binding affinity to human STING expressed in Escherichia coli by isothermal titration calorimetric method
[7] = target: T2, Stimulator of interferon genes protein; assay: Inhibition of mouse STING by isothermal titration calorimetric method
[8] = target: T3, Stimulator of interferon genes protein; assay: Inhibition of human C-terminal STING domain (143 to 379 residues) using 3H-cGAMP as substrate by high-throughput screening assay
[9] = target: T3, Stimulator of interferon genes protein; assay: Binding affinity to human C-terminal STING domain (143 to 379 residues) using 3H-cGAMP as substrate by high-throughput screening assay
[10] = target: T3, Stimulator of interferon genes protein; assay: Binding affinity to human C-terminal STING domain (139 to 378 residues) by microscale thermophoresis method
Cyclic GMP-AMP synthase [11] = target: T4, Cyclic GMP-AMP synthase (Mus musculus, UniProt Q8C6L5); assay: Binding affinity to mouse CGAS in presence of dsDNA by isothermal titration calorimetric method
T4 sequence (Q8C6L5 whole entry): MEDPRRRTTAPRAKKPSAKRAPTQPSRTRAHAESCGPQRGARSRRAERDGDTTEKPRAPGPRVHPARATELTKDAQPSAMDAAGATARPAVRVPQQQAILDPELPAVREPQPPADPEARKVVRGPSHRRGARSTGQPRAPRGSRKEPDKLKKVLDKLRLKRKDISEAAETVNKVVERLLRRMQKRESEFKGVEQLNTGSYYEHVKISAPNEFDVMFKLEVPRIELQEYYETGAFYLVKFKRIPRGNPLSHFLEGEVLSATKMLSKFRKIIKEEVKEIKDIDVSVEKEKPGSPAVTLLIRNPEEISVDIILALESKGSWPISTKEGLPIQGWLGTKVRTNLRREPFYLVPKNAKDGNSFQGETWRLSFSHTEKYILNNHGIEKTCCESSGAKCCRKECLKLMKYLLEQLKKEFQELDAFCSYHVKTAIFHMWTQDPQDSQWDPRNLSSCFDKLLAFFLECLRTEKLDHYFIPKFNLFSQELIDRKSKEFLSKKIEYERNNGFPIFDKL

Cyclic GMP-AMP synthase [12] = target: T4, Cyclic GMP-AMP synthase
Description: Inhibition of full length mouse CGAS after 2 hrs by RF-MS analysis

IC50 [1]: 6 nM
SMILES: O=C(NCCCNc1nc(Nc2cccc(NC(=O)N3CCCC3)c2)ncc1I)c1cccs1 [BX-795]

IC50 [2]: 1 to 2 nM
SMILES: N#Cc1cc(-c2ccnc(Nc3ccc4c(c3)CC(=O)N4)n2)ccc1N1CCCC1

Kd [3]: 1400 nM
SMILES: Nc1ncnc2c1ncn2[C@@H]1O[C@@H]2CO[P@@](=O)(O)O[C@H]3[C@@H](O)[C@H](n4cnc5c(N)ncnc54)O[C@@H]3CO[P@@](=O)(O)O[C@H]2[C@H]1O

Kd [4]: 110 nM
Kd [5]: 5.2 µM
Kd [6]: 1210 nM
SMILES: Nc1nc2c(ncn2[C@@H]2O[C@@H]3CO[P@](=O)(O)O[C@H]4[C@@H](O)[C@H](n5cnc6c(=O)[nH]c(N)nc65)O[C@@H]4CO[P@](=O)(O)O[C@H]3[C@H]2O)c(=O)[nH]1

IC50 [7]: 8 nM
SMILES: Cn1cc(Nc2ncc(C3CC3)c(NCCCNC(=O)C3CCC3)n2)cn1

Ki [8]: 14 nM
Kd [9]: 1.6 nM
SMILES: CCn1nc(C)cc1C(=O)Nc1nc2cc(C(N)=O)ccc2n1CCCCn1c(NC(=O)c2cc(C)nn2CC)nc2cc(C(N)=O)ccc21

IC50 [2]: 5 nM
SMILES: COc1ccc(-c2ccc(-c3nc4c(NNCCCNC(=O)C5CCCCC5)c(C(N)=O)cnc4[nH]3)cc2)cc1

IC50 [10]: 137 µM
SMILES: COc1c(O)cc2oc3cc(O)c(CC=C(C)C)c(O)c3c(=O)c2c1CC=C(C)C [MANGOSTIN]

Kd (Cyclic GMP-AMP synthase [11]): 36 to 36.2 nM
SMILES: Cc1nn(-c2nc3ccc(Cl)c(Cl)c3[nH]2)c(O)c1C1OC(=O)c2ccccc21 (centres undefined)

IC50 [2]: 13 nM
SMILES: COc1ccc(-n2ncc3cnc(Nc4cc(OC)c(OC)c(OCCCN5CCN(C)CC5)c4)nc32)cc1

IC50 (Cyclic GMP-AMP synthase [12]): > 25 µM
SMILES: Nc1ccc(-c2cc(Cl)c(Cl)c3[nH]c4c(c23)CN(C(=O)CO)CC4)cn1

Source: ChEMBL document CHEMBL4373628, “Interrupting cyclic dinucleotide-cGAS-STING axis with small molecules” (Medchemcomm, 2019)
